In patent US20140093486A1, “METHOD FOR PREPARING INDUCED PLURIPOTENT STEM CELLS AND ITS APPLICATIONS” (Taipei Veterans General Hospital, priority 2012, published 2014):

Tests used:
[1] = system: MEFs transfected with OSKM; assay: efficiency of iPSC generation from OSKM-transfected MEFs (ALP staining); format: cell-based, mouse; settings: induced by OSKM, day 21 post-reprogramming
Source text: C57/B6 mice were used in this study and all procedures involving animals were approved by the Animals Committee of the Taipei Veterans General Hospital. Murine iPSCs were generated from mouse embryonic fibroblasts (MEFs) derived from 13.5-day-old embryos of C57/B6 mice. The iPSCs were reprogrammed by the transduction of retroviral vectors encoding four transcription factors (Oct4/Sox2/Klf4/c-Myc; OSKM), or three transcription factors (Oct4/Sox2/Klf4; OSK), as described previously (Li et al., 2011). Total of 12 clones (Re-1 to Re-12; OSKM) were selected and established. The clone of Re-7 iPSCs had been stably passed to more than 100 th passages with high pluripotency. Therefore, Re-7 iPSCs were selected and widely used in this study. Briefly, undifferentiated iPSCs were routinely cultured and expanded on mitotically-inactivated MEFs (50,000 cells/cm 2) in six-well culture plates (BD Technology) in the presence of 0.3% leukemia inhibitory factor in an iPSC medium consisting of Dulbecco's Modified Eagle's Medium (DMEM; Sigma) supplemented with 15% fetal bovine serum (FBS; Invitrogen), […] minimal essential medium (MEM) nonessential amino acids (Sigma), 0.55 mM 2-mercaptoethanol (Gibco), and antibiotics (Invitrogen). Every three to four days, colonies were detached with 0.2% collagenase IV (Invitrogen), dissociated into single cells with 0.025% trypsin (Sigma) and 0.1% chicken serum (Invitrogen) in PBS, and replated onto MEFs. For embryoid body (EB) formation, iPSCs were dissociated into a single cell suspension by 0.25% trypsin-EDTA and plated onto non-adherent culture dishes in DMEM with 15% FBS, […] MEM nonessential amino acids, 0.55 mM 2-mercaptoethanol, and antibiotics at a density of 2×10^6 cells/100 mm plate. After 4 days in floating culture, EBs were transferred onto gelatin-coated plates and maintained in the same medium for 24 h. EBs were then assigned for in vitro differentiation into tridermal lineages as previously described (Li et al., 2011). […]

Mice (C57/B6) [2] = assay: CCl4-induced acute liver injury model; format: in vivo, mouse; settings: CCl4-injured mice
Procedure: (§1) Mice (C57/B6, 8 to 10 weeks) were housed in cage and allowed free access to food and water. Mouse was given carbon tetrachloride (CCl4, Sigma) in mineral oil (0.35·μl/g, single dose, i.p.) to induce liver injury. At 4 h post-injury, mice were randomized to receive vehicle (PBS), iPS cells or iHL (2×10^6 cells/in 100 μl PBS) infusions via tail veins. For the time points study, mouse received blood withdrawal (˜100 μl) from facial veins at scheduled time for liver biochemistry. When mouse was sacrificed, blood was drawn from the heart and the liver was harvested and prepared for subsequent experiments including histochemistry, cytokine assay, protein and gene expression analysis. For neutralizing antibody study, mouse was given two doses (0.5 μg/dose, i.p.) of anti-IP-10 antibodies (Abcam, ab9938, Cambridge, UK) at 4 h before and 4 h after injury. For 72 h survival study, mice received repetitive CCl4 injury at 0, 24 and 48 h. […]
The paraffin sections of livers were stained by H.E. and photo-taken under microscopy at 40× magnification to evaluate the degree of injury. Necrotic area were determined by measuring five independent fields per liver using a computerized morphometry system (MicroCam, M&T OPTICS, Taiwan) and expressed as percentage of the filed area. […]

Mice (C57/B6) [3] = assay: 72-hour survival of repetitive CCl4-injured mice; format: in vivo, mouse; settings: repetitive CCl4 at 0, 24 and 48 h; treatment once at 4 h
Procedure: as §1, with “h. The iPS cells (2×10^6 cells/in 100 μl PBS) or recombinant IP10 (rIP10, 0.5 ng) were given once at 4 h and the mortality rate of mice was observed until 72 h post-injury.” for “h.”
To evaluate the survival effects of iPS cells and IP-10, the 72-hour survival rates were evaluated in repetitive CCl4-injured mice, to which two additional doses of CCl4 (given at 24 and 48 hours) were given after the first dose. […]

hepatocytes = assay: viability of CCl4-injured hepatocytes (MTT assay); format: cell-based; settings: 0.5 or 5 ng, CCl4 concentration of 1.0 to 2.5 mM, 24 h
Procedure: Mouse germline-competent iPS cells were provided by Kyoto University (Dr. Shinya Yamanaka) and RIKEN BRC, Japan (Takahashi K et al. (2006) Cell 126:663-676). IPS cells were cultured as previously described (Okita K et al. (2007) Nature 448: 313-317.9). […] For recombinant IP-10 (rIP-10, Peprotech, NC) study, hepatocytes were seeded on 24-well plates at the same density. The rIP-10 (0.5 ng or 5 ng) was given at 4 h post-injury. The viability of hepatocytes was evaluated at 24 h by methyl thiazol tetrazolium (MTT, Sigma) assay.

Compound | efficiency of iPSC generation [1] | degree of liver damage (Mice (C57/B6) [2]) | 72-hour survival rates (Mice (C57/B6) [3]) [%] | viability of injured hepatocytes (hepatocytes)
NC(=O)c1cccc(N)c1 [3-aminobenzamide] | reduction in the efficiency of iPSC generation |  |  | 
C[C@]1(c2nc3c(C(N)=O)cccc3[nH]2)CCCN1 [ABT-888] | reduction in the efficiency of iPSC generation |  |  | 
CN(C)CC(=O)Nc1ccc2[nH]c(=O)c3ccccc3c2c1 [PJ-34] | reduction in the efficiency of iPSC generation |  |  | 
rIP-10: recombinant IP-10 (Peprotech) |  | significantly reduced | 100 | sufficiently increased the viability
